In patent US11014896B2, “TRPA1 and TRPV4 inhibitors and methods of using the same for organ-specific inflammation and itch” (Duke University, priority 2014, dated 2021):
Entries after “also recorded” stand apart in the source; their conditions may differ.

How the values were obtained:
[1] = UVB-induced nocifensive behavior after topical GSK205 (Hargreaves' test, von Frey hair); format: in vivo, mouse
Method: Behavioral tests were performed to evaluate the decrease in withdrawal thresholds in response to mechanical von Frey hair or thermal stimuli applied to hind paws. […]. These withdrawal thresholds were ascertained before and after UV exposure. Mice were exposed using a Bio Rad Gel Doc 2000 UV transilluminator (302 nm) for 5 minutes with an exposure of 600 mJ/cm^2, 3-5 days after the last application of tamoxifen/oil.
(§1) GSK205 topical treatment: A viscous solution of 68% EtOH/5% glycerol plus 1 mM or 5 mM GSK205 (none for control) was applied to hindpaws by rubbing in 20 μL, applied at time-points 1 hour and again 10 min before UV exposure.
Behavioral tests were performed to evaluate the decrease in withdrawal thresholds in response to mechanical or thermal stimuli applied to hind paws. These withdrawal thresholds were ascertained before and after UVB exposure. Mice were confined by plexi-glass enclosures on top of 25×26 cm Bio Rad Gel Doc 2000 UV transilluminator (302 nm), and otherwise allowed to openly explore this environment. UV-exposure lasted for 5 minutes with an exposure of 600 mJ/cm^2.
Hindpaw mechanical withdrawal thresholds were determined by the automated von Frey hair method, using a 0.5 mm diameter stainless steel filament, part of an automated plantar touch stimulator (Ugo Basile, Modena, Italy). Relevant detail included pre-test acclimatization in a quiet room for 30 min, conducting the test at the same time of day and blinded observers. The stimulus was delivered to the hindpaw, automatically discontinued upon withdrawal, and its intensity recorded automatically. 6-8 trials per animal were conducted, with equal exposure of both hindpaws, leading to an average withdrawal threshold. Results are reported as […], which was calculated by subtracting post-treatment from pre-treatment measurements, expressed as % or relative to 1.0.
Hindpaw thermal (hot) withdrawal thresholds were determined by the well-established Hargreaves' method, using an infra-red thermal stimulation device that delivers the stimulus from underneath the hindpaw combined with automatic shut-off upon withdrawal (Ugo Basile). Stimulation and measurements were conducted as described for von Frey hair testing. A cutoff of 20 sec was set to prevent tissue damage.

[2] = tested on: primary mouse keratinocytes (1° MK); experiment: UVB-evoked Ca++ signaling in primary mouse keratinocytes (fluo-4 imaging); format: cell-based
Method: Ca++ imaging of 1° MK was conducted following routine procedures. For UVB stimulation, a customized device was built. The system comprised a printed circuit board for electrical interconnects and mechanical support and an ultraviolet light-emitting diode (UV LED).
The operating wavelength was 295 nm (FIG. 2A), with a full-width half-max of 12 nm. The optical power was 500 mW. The focal point was aimed at the plane of the upper surface of the quartz coverslip, which was used to minimize UV absorption along the optical path towards the cells (FIG. 2A-FIG. 2C). The optical intensity at the focal point was estimated to be 150 mW/mm^2.
Ca++ imaging of mouse 1° MK in response to chemical activation of TRPV4 was conducted after loading with 2 μM fura2-AM, following a ratiometric Ca2+ imaging protocol with 340/380 nm […] for dual excitation. Ratios of emissions were acquired at 0.5 Hz. ΔR/R0 was determined as the fraction of the increase of a given ratio over baseline ratio, divided by baseline ratio. For stimulation of cells with UVB, where fura-2 was not suitable because of the proximity of stimulation with 340/380 nm and 295 nm, 2 μM fluo4-AM was used instead. Ca++ imaging was carried out at 488 nm excitation, acquisition of emissions at 0.5 Hz, expressed as ΔF/F0. In the custom-built UV optical system, UV LEDs were capped with a ball lens, a transparent optical window in the shape of a hemispherical lens (FIG. 2B). The LED output optical beam focused at 15-20 mm from the lens, with a spot diameter of approximately 1.5-2.0 mm (FIG. 2C). […] The thermal equilibration stage was set for physiological temperature.

CXCL5 = experiment: Keratinocyte CXCL5 expression in UVB-exposed footpad after topical treatment; format: in vivo, mouse; details: 5 mM GSK205 topical
Method: as §1
Routine procedures were followed as described previously (Chen et al., 2009). Mice were perfused transcardially with 30 mL PBS, followed by 30 mL 4% paraformaldehyde. Tissues, including the L5 DRGs (bilateral), and footpad preparations, were dissected and post-fixed in 4% paraformaldehyde. Tissue blocks were further cryoprotected in 30% sucrose in PBS for 24-48 hours. For mouse TRPV4, keratin-specific antibodies, phospho-ERK, IL-6, IL-1β, CXCL5 and caspase-1, tissue was prepared as frozen blocks and subsequently sectioned on a cryostat. For CD68, CD15 (neutrophil elastase) and CD3, mouse skin was prepared by 2% PFA perfusion. […]

ET1 = ET1 expression by UVB-exposed 1° MK (immunocytochemistry); format: cell-based, mouse; details: cells preincubated with inhibitor
Method: 1° MK were exposed to UVB using the UV optical system (295 nm LED). 24 hours later the cells were fixed and fluorescently immunolabeled for ET1. Digital images were captured and subjected to morphometry.
Mouse keratinocytes were cultured on collagen coated quartz coverslips and then stimulated from the bottom using the previously mentioned UV optical system using the 295 nm LED. 24 hours later the cells were fixed in 4% formaldehyde in PBS for 20 minutes, permeabilized with 0.1% Triton X-100 in PBS for 10 minutes, washed, then blocked in 10% normal goat serum in PBS for 45 minutes. Coverslips were incubated overnight with primary antibody mouse anti-ET1 (1:200; Abcam), washed three times in PBS and incubated with secondary antibody for 2 hours at 25° C. Coverslips were washed three times in PBS, once with double-distilled H2O. Digital images were captured using a 40× immersion lens on the BX61 Olympus upright microscope. Morphometric analysis was conducted using ImageJ freeware with tailored regions-of-interest.

Structure (SMILES): CN(CCc1ccc(Nc2nc(-c3cccnc3)cs2)cc1)Cc1ccccc1 [GSK205]
- delay in thermal sensitivity after UVB ([1]; 1 mM GSK205 topical, WT mice): ~24 h
- thermally-evoked nocifensive behavior (Hargreaves' test) after UVB ([1]; 5 mM GSK205 topical, 60′ and 10′ pre-exposure, WT mice): sustained attenuation of thermally-evoked nocifensive behavior; also recorded: significant attenuation of thermal allodynia
- nocifensive behavior after UVB in Trpv4−/− mice vs. vehicle (off-target effects) ([1]; 5 mM GSK205 topical, Trpv4−/− mice): did not show any inter-group differences; also recorded: lack of off-target effects
- sensitivity to von Frey hair mechanical stimulation after UVB ([1]; topical GSK205, WT mice): significantly reduced sensitivity
- UVB-evoked Ca++ signaling (ΔF/F0) ([2]; GSK205 20 μM): very similar response to that of Trpv4−/− 1° MK; also recorded: strongly down-regulated; also recorded: significant attenuation
- ET1-augmented, UVB-induced Ca++ transients ([2]; UVB and ET1 co-exposure): greatly diminished
- keratinocyte expression of CXCL5 in UVB-exposed footpad (CXCL5): Comparably significant blocks; also recorded: attenuates keratinocyte expression of CXCL5
- ET1 immunoreactivity (ET1): diminished; also recorded: significant down-regulation
